Converted amounts (≈) assume the structure as drawn.
Assays:
[1] = test system: Trypanosoma brucei; experiment: Assay 3 Trypanosoma brucei cell growth inhibition assay; type: cell-based; conditions: T. b. brucei BSF427, 69 h + 4 h resazurin, maximum threshold 8.0, read-out: pEC50 value against Trypanosoma brucei (converted)
Procedure: Measurement of the ability of the compounds to inhibit trypanosome (T. b. brucei, BSF427, VSG118) cell growth was performed using a modification of the cell viability assay previously described by Raz et al. (Raz B.; Iten M.; Grether-Buhler Y.; Kaminski R.; Brun R. The Alamar Blue assay to determine drug sensitivity of African trypanosomes (T. b. rhodesiense and T. b. gambiense) in vitro. Acta Trop. 1997, 68, 139-147). Compounds were dissolved in DMSO at a top concentration of 10 mM and serially diluted in half log steps to achieve a range of final assay concentrations of 50 μM to 0.5 nM. Compound at each concentration (200-fold final) was added to clear 96-well tissue culture plates in a volume of 1 μL. Then 2000 cells per well in relevant growth medium (HMI-9T for T. brucei, a modification of HMI-9 as described by Hurumi et al. (Hirumi H.; Hirumi K. Continuous cultivation of Trypanosoma brucei blood stream forms in a medium containing a low concentration of serum-protein without feeder cell-layers. J. Parasitol. 1989, 75, 985-989.) where 0.2 mM 2-mercaptoethanol was replaced with 0.056 mM thiolglycerol, and MEM with 10% FBS for MRC5) were then added to columns 1-11 of the plates in a volume of 199 μL. To column 12, 200 μL of medium was added to provide a no cells control. Plates were then incubated at 37° C. in an atmosphere of 5% CO2 for 69 h, before the addition of 20 μL of 500 μM rezasurin solution, and a further incubation period of 4 h. Plates were then read on a BioTek flx800 fluorescent plate reader, and percentage inhibition was compared to the maximum and minimum assay controls. Concentration effect curves were fitted using nonlinear regression using XLFit 4.2 and EC50 values determined.

[2] = Assay 5 Leishmania donovani intracellular assay, cytotoxicity against THP-1 cells; type: cell-based; conditions: human, total number of THP-1 cells, minimum threshold 4.3, read-out: cytotoxicity against THP-1 cells, pEC50 value (converted)
Procedure: (§1) Compounds were dispensed into black 384-well assay plates (Greiner) by acoustic dispensing (LabCyte ECHO). For potency determinations, eleven-point, one in three dilution curves were generated, with a top concentration of 50 μM. THP-1 human monocytes cells were dispensed in T225 tissue culture flasks and differentiated using 30 nM of PMA, after 24 hours they were infected overnight using Leishmania donovani expressing Green Fluorescent Protein (eGFP) amastigotes in the same T225 tissue culture flasks at a multiplicity of infection of 10. Next, any remaining free amastigotes were washed away with PBS and the infected THP-1 cells were harvested by trypsinisation. The infected cells were then plated into 384-well plates containing the compounds to be tested, at 3000 cells per well in RPMI media with 2% FBS and 25 mM Sodium bicarbonate. After 96 h incubation at 37° C. in presence of 5% CO2, the plates were fixed with 4% formaldehyde for 30 minutes, washed with PBS and stained with 0.1 mg/mL of DAPI for 30 minutes and washed again with PBS. The plates were imaged on a Perkin Elmer Opera high-content imaging system using a 20× air objective with two expositions, one for DAPI stain and other for eGFP. Images were analysed using the Acapella building blocks system (Perkin Elmer). The image analysis algorithm first identified the THP-1 nuclei followed by demarcation of the cytoplasm and identification of intracellular amastigotes. This algorithm reported mean number of parasites per THP-1 cell, the percentage of infected THP-1 cells and the total number of THP-1 cells.

[3] = test system: Leishmania donovani; experiment: Assay 5 Leishmania donovani intracellular assay (eGFP amastigotes in THP-1 cells); type: cell-based; conditions: 96 h, read-out: pEC50 value against Leishmania donovani (converted)
Procedure: as §1, with “The image analysis algorithm first identified the THP-1 nuclei followed by demarcation of the cytoplasm and identification of intracellular amastigotes. This algorithm reported mean number of parasites per THP-1 cell, the percentage of infected THP-1 cells and the total number of THP-1 cells.” left out

[4] = Assay 4 solubility assay, ChemiLuminescent Nitrogen Detection (CLND); type: physicochemical; conditions: phosphate buffered saline, pH 7.4, aqueous buffer, kinetic from dmso stock, pH 7.4 PBS, from 10 mM DMSO stock, 1 h at room temperature
Summary of the method: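 Kinetic solubility: 10 mM DMSO stock diluted 5 µl into 100 µl pH 7.4 PBS, incubated 1 h at room temperature, then filtered. Filtrate quantified by HPLC with chemiluminescent nitrogen detection against ondansetron and caffeine standards; solubility in µM by linear-regression calibration.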

SMILES: O=C(Nc1ccc(F)c(-c2cn3nc(N4CCOCC4)cnc3n2)c1)N1CCCC1 [Example 1, N-(4-fluoro-3-(2-morpholinoimidazo[1,2-b][1,2,4]triazin-6-yl)phenyl)pyrrolidine-1-carboxamide]
- EC50 [1]: < 10 nM
- EC50 at 96 h [2]: > 50100 nM
- EC50 [3]: 158 nM
- solubility at 1 h [4]: 100 to 416 µM (≈ 41.1 to 171 µg/mL)
